According to patent US7276528B2, “Compounds for the inhibition of nitric oxide synthase” (AstraZeneca AB, priority 2001, dated 2007):
Structures can show the parent of a compound that is named as a salt.

Legend:
Assay type in all cases: biochemical
Conditions in all cases: recombinant human enzyme expressed in E. coli; 60 min pre-incubation with NADPH; 3 μM [3H]arginine
[1] = target: T1, Recombinant human iNOS (Homo sapiens, UniProt P35228); assay: Screen 2: recombinant human NO synthase inhibition, L-[3H]citrulline formation (iNOS)
T1 construct: made in house; host or cells: E. coli (lysate)
T1 sequence (P35228 whole entry): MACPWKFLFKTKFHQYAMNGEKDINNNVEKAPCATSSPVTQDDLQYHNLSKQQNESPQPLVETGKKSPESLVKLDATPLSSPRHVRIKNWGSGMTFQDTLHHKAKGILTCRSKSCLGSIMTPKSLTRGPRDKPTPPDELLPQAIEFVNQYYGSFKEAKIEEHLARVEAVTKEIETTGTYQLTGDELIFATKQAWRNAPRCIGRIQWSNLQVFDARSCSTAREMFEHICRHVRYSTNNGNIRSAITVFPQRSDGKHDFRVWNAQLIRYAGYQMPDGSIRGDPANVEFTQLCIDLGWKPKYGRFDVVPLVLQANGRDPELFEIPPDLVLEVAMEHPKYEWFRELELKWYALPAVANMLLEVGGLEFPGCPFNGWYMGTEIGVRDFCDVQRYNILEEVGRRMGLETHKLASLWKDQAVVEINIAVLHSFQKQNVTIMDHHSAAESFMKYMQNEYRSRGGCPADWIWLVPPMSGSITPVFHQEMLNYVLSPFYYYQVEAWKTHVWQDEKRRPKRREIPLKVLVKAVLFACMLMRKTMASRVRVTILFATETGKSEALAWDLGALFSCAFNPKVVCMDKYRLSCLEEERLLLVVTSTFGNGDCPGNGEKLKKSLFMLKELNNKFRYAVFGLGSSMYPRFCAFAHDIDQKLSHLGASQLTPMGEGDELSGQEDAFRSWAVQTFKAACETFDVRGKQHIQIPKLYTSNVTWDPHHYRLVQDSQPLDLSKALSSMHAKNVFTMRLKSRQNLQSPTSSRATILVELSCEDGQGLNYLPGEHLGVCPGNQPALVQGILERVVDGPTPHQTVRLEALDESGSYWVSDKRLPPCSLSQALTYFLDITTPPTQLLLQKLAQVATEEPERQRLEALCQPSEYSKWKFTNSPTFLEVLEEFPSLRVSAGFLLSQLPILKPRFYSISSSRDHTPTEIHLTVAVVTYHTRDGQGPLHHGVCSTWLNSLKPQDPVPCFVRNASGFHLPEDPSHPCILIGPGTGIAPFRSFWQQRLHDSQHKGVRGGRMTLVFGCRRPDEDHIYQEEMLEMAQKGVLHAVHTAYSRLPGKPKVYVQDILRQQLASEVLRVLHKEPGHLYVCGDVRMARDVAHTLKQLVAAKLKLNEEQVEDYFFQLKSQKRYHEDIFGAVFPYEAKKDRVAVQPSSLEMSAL
Description: (§1) Recombinant human NO synthases (iNOS, eNOS & nNOS) were expressed in E. coli and lysates were prepared in Hepes buffer (pH 7.4) containing co-factors (FAD, FMN, H4B), protease inhibitors, lysozyme and the detergent, CHAPS. These preparations were used, at suitable dilution, to assess inhibition of the various isoforms. Inhibition of NOS was determined by measuring the formation of L-[^3H]citrulline from L-[^3H]arginine using an adaptation of the method of Förstermann et al. Enzyme assays were performed in the presence of 3 μM [^3H]arginine, 1 mM NADPH and other co-factors required to support NOS activity (FAD, FMN, H4B, calmodulin, Ca^2+). […] Incubations continued for a further 60 min before the assays were quenched and [^3H]citrulline separated from unreacted substrate by chromatography on Dowex-50 W resin in a 96-well format.

[2] = target: T2, Recombinant human nNOS (Homo sapiens, UniProt P29475); assay: Screen 2: recombinant human NO synthase inhibition, L-[3H]citrulline formation (nNOS)
T2 construct: made in house; host or cells: E. coli (lysate)
T2 sequence (P29475 whole entry): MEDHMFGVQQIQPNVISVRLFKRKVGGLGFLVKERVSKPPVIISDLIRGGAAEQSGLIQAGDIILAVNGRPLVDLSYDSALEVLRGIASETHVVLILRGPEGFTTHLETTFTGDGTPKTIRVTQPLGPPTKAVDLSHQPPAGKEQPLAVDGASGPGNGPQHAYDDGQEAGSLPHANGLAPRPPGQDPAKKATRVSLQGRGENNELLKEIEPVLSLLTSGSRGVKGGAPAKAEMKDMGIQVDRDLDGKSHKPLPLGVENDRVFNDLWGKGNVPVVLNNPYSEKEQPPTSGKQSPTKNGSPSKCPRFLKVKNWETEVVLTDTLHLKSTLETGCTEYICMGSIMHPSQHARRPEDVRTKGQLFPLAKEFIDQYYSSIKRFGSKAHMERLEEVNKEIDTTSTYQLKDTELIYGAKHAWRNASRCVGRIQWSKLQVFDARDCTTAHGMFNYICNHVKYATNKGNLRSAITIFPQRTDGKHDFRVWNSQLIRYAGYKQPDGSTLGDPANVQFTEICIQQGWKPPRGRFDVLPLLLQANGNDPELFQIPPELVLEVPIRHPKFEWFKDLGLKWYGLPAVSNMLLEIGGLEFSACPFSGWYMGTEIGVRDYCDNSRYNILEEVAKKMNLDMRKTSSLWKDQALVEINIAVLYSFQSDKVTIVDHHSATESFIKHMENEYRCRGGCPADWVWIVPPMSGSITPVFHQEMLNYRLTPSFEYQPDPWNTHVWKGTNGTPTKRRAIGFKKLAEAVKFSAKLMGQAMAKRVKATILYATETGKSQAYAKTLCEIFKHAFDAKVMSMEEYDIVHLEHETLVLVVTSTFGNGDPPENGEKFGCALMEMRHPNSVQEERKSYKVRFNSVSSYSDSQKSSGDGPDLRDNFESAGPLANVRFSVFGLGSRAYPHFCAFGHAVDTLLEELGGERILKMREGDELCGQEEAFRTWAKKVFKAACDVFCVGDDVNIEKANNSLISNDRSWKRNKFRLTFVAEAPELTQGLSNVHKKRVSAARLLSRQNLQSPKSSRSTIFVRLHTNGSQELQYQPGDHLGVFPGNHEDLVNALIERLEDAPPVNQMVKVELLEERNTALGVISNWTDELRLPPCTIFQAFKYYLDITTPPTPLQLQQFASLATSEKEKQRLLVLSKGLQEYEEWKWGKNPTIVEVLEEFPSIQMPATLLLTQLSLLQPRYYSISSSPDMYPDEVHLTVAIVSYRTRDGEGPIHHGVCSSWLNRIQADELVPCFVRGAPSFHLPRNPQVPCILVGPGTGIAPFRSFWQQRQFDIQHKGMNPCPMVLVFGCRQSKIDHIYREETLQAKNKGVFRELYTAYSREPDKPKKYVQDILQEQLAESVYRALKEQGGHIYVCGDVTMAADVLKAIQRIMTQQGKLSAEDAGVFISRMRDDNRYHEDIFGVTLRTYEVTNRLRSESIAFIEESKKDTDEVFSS
Description: as §1

[3] = target: T3, Recombinant human eNOS (Homo sapiens, UniProt P29474); assay: Screen 2: recombinant human NO synthase inhibition, L-[3H]citrulline formation (eNOS)
T3 construct: made in house; host or cells: E. coli (lysate)
T3 sequence (P29474 whole entry): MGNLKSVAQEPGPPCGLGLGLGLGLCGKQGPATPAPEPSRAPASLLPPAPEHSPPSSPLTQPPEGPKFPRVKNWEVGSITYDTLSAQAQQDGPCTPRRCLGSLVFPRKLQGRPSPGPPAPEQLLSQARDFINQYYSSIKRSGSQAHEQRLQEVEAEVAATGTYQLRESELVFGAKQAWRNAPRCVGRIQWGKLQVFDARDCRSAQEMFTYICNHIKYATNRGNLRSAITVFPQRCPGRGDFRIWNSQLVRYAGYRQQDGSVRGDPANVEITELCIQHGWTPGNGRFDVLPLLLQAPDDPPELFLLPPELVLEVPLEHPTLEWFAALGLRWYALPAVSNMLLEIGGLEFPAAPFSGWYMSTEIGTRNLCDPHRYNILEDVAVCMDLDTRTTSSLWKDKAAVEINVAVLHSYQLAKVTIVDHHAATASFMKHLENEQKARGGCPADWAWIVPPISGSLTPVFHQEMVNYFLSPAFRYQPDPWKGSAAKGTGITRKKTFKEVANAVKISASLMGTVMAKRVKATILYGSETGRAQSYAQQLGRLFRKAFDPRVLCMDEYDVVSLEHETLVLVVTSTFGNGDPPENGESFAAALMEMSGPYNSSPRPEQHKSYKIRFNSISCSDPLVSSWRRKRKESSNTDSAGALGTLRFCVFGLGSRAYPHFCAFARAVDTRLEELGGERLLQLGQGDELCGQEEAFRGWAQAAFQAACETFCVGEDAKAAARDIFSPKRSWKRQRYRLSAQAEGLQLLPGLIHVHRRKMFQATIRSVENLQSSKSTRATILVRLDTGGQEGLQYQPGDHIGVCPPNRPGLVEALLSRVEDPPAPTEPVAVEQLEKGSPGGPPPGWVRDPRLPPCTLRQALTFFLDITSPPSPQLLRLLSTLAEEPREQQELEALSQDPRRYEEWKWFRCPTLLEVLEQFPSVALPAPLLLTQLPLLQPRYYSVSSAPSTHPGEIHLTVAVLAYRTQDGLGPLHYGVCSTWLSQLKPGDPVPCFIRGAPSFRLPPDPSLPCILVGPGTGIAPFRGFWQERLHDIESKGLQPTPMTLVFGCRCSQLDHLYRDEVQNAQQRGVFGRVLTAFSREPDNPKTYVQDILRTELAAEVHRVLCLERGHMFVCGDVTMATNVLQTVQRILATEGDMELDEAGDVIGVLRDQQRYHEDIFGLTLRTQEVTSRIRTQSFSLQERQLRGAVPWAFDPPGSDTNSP

Compound | IC50 [1] | IC50 [2] | IC50 [3]
CNCc1cccc(Oc2cc(Cl)ccc2C#N)c1 [Example 10, 4-Chloro-2-(3-methylaminomethyl-phenoxy)-benzonitrile fumarate] | 0.0029 µM | 0.0048 µM | 0.34 µM
CNCc1ccc(Oc2cc(Cl)ccc2C#N)c2ccccc12 [Example 24, 4-Chloro-2-[4-(methylaminomethyl)naphthalen-1-yloxy]benzonitrile fumarate] | 0.16 µM | 0.039 µM | 5.4 µM
CN(C)Cc1cccc(Oc2cc(Cl)ccc2C#N)c1 [Example 25, 4-Chloro-2-[3-(dimethylaminomethyl)phenoxy]benzonitrile fumarate] | 0.09 µM | 0.2 µM | 44 µM
